Patent US20250281449A1, “NITROGEN-CONTAINING ANALOGS OF SALINOMYCIN FOR USE IN MULTIPLE MYELOMA (MM)” (Centre National de la Recherche Scientifique, priority 2021, published 2025)

What was measured:
[1] = system: H3K36me3; experiment: Western blot of histone methylation; assay type: cell-based, human; conditions: 24H
Protocol: Cells were treated with iron chelators (80 μM Deferasirox), and Ironomycin (IC50 and 200 nM) during 24H. Protein levels of MMSET (isoforms I and II), MYC, H3K36me3 and H3K27me3 were analyzed by western blot. MMSET (isoforms I and II) and MYC signal were normalized by α-tubulin protein level, H3K36me3 and H3K27me3 signal were normalized by total histone 3 protein level.
The total cell lysates were obtained with RIPA 1× lysis buffer (#9806, Cell Signaling®) according with the supplier recommendations.
Protein lysates migrate on 10% polyacrylamide gel (NP-0301, Novex, Life Technologies®), in MOPS 1× running buffer (NP0001, Novex, Life Technologies®) or MES 1× running buffer NP-0002, Novex, Life Technologies®) and proteins are transferred to nitrocellulose membrane (1B301001, I-Blot Transfert Starck, NuPAGE, Life Technologies®). The primary antibodies mouse-anti-phospho-Histone H2A.X (Ser139) clone JBW301 ( 1/1000, Merck Millipore), anti-H3K36me3 (#ab9050, abcam®), anti-H3K27me3 (#9733, Cell Signaling®), anti-MMSET (#65127, Cell Signaling® et ab75359, abcam), anti-MYC (#5605, Cell Signaling®) were incubated in TBS-Tween 20 0.1% (Tris-Buffered Saline, pH 7.4) with 5% non-fat milk or Bovine serum albumin (Sigma-Aldrich, A7906). […] Quantification of protein levels was performed with Image J® software (National Institutes of Health, Bethesda, MD, USA).

[2] = system: XG-19; experiment: Cell viability assay (Cell Titer-Glo), HMCL; assay type: cell-based; conditions: Homo sapiens; XG-19 HMCL, 96H
Protocol: (§1) The panel of 17 HMCL cell lines were incubated with increasing concentrations of Ironomycin (A), AM23 (B) or vehicle for 96H.
(§2) HMCL cell lines were cultured for 4 days in 96-well flat-bottom microtiter plates in RPMI 1640 medium or DMEM medium, 10% or 20% FCS (control medium) in the presence of various compounds. The number of viable cells in culture was determined using the Cell Titer-Glo Luminescent Cell Viability Assay from Promega, Madison, WI, USA using a Centro LB 960 luminometer (Berthold Technologies, Bad Wildbad, Germany).
(§3) This test is based on quantitation of the intracellular ATP present, which signals the presence of metabolically active cells. Data are expressed as the mean percentage of six replicates, normalized to the untreated control.

[3] = system: XG24; experiment: Cell viability assay (Cell Titer-Glo), HMCL; assay type: cell-based; conditions: Homo sapiens; XG24 HMCL, 96H; read-out: IC50
Protocol: as §1, §2, §3

[4] = system: L363; experiment: Cell viability assay (Cell Titer-Glo), HMCL; assay type: cell-based; conditions: Homo sapiens, L-363, 96H
Protocol: as §1, §2, §3

[5] = system: XG21; experiment: Cell viability assay (Cell Titer-Glo), HMCL; assay type: cell-based; conditions: Homo sapiens; XG21 HMCL, 96H; read-out: IC50
Protocol: as §1, §2, §3

[6] = system: RPMI; experiment: Cell viability assay (Cell Titer-Glo), HMCL; assay type: cell-based; conditions: Homo sapiens, 96H
Protocol: as §1, §2, §3

[7] = system: OPM-2; experiment: Cell viability assay (Cell Titer-Glo), HMCL; assay type: cell-based; conditions: Homo sapiens; OPM-2 HMCL, 96H; read-out: IC50
Protocol: as §1, §2, §3

[8] = system: AMO-1; experiment: Cell viability assay (Cell Titer-Glo), HMCL; assay type: cell-based; conditions: Homo sapiens, AMO1; AMO-1 HMCL, 96H
Protocol: as §1, §2, §3

[9] = system: XG20; experiment: Cell viability assay (Cell Titer-Glo), HMCL; assay type: cell-based; conditions: Homo sapiens; XG20 HMCL, 96H; read-out: IC50
Protocol: as §1, §2, §3

[10] = system: MOLP-8; experiment: Cell viability assay (Cell Titer-Glo), HMCL; assay type: cell-based; conditions: Homo sapiens; MOLP-8 HMCL, 96H; read-out: IC50
Protocol: as §1, §2, §3

[11] = system: XG6; experiment: Cell viability assay (Cell Titer-Glo), HMCL; assay type: cell-based; conditions: Homo sapiens; XG6 HMCL, 96H; read-out: IC50
Protocol: as §1, §2, §3

[12] = system: XG28; experiment: Cell viability assay (Cell Titer-Glo), HMCL; assay type: cell-based; conditions: Homo sapiens; XG28 HMCL, 96H; read-out: IC50
Protocol: as §1, §2, §3

[13] = system: XG2; experiment: Cell viability assay (Cell Titer-Glo), HMCL; assay type: cell-based; conditions: Homo sapiens, 96H
Protocol: as §1, §2, §3

[14] = system: XG-1; experiment: Cell viability assay (Cell Titer-Glo), HMCL; assay type: cell-based; conditions: Homo sapiens; XG-1 HMCL, 96H; read-out: IC50
Protocol: as §1, §2, §3

[15] = system: JJN3; experiment: Cell viability assay (Cell Titer-Glo), HMCL; assay type: cell-based; conditions: Homo sapiens, JJN-3, 96H
Protocol: as §1, §2, §3

[16] = system: XG12; experiment: Cell viability assay (Cell Titer-Glo), HMCL; assay type: cell-based; conditions: Homo sapiens; XG12 HMCL, 96H; read-out: IC50
Protocol: as §1, §2, §3

[17] = system: XG-7; experiment: Cell viability assay (Cell Titer-Glo), HMCL; assay type: cell-based; conditions: Homo sapiens; XG-7 HMCL, 96H; read-out: IC50
Protocol: as §1, §2, §3

[18] = system: XG11; experiment: Cell viability assay (Cell Titer-Glo), HMCL; assay type: cell-based; conditions: Homo sapiens, 96H
Protocol: as §1, §2, §3

[19] = system: XG-1, XG-7 and OPM-2 cell lines; experiment: Apoptosis induction (Annexin V staining or PARP-cleavage, flow cytometry); assay type: cell-based, human; conditions: IC50 of ironomycin, 72H
Protocol: XG-1, XG-7 and OPM-2 cell lines were treated with IC50 of ironomycin during 72H. Apoptosis induction was monitored by Annexin V staining (XG-1 and XG-7) or PARP-cleavage and analyzed by flow cytometry (A).
Annexin V-PE staining for apoptosis analysis was performed using the “PE Annexin V Apoptosis Detection Kit I” (559763, Becton Dickinson).
The cell cycle progression was studied by flow cytometry using the Apoptosis, DNA Damage, and Cell Proliferation Kit (562253, Becton Dickinson). Briefly, cells were labeled with bromodeoxyuridine (BrdU), an analog of the DNA precursor thymidine that can be incorporated into newly synthesized DNA and detected with an antibody against BrdU to measure cell proliferation. After this labeling, the cells were fixed, permeabilized and treated with DNase to expose the BrdU epitopes. Following this treatment, cells were simultaneously stained with fluorochrome-labeled anti-BrdU, anti-cleaved Poly A DP-ribose polymerase 1 (PARP), anti-H2AX phosphorylated at serine 139. They were also stained with DAPI to determine DNA content. Finally, cells were resuspended in staining buffer and analyzed by flow cytometry (Fortessa, Becton Dickinson).

SMILES: C#CCN[C@@H]1C=C[C@]2(O[C@H]([C@@H](CC)C(=O)[C@@H](C)[C@@H](O)[C@H](C)[C@@H]3O[C@@H]([C@@H](CC)C(=O)O)CC[C@@H]3C)[C@@H](C)C[C@H]2C)O[C@@]12CC[C@@](C)([C@H]1CC[C@](O)(CC)[C@H](C)O1)O2 [Ironomycin]
- H3K36 methylation [1]: significant deregulation of H3K36 methylation
- IC50 [2]: 27 nM
- IC50 [3]: 19 nM
- IC50 [4]: 13 nM
- IC50 [5]: 156 nM
- IC50 [6]: 73 nM
- IC50 [7]: 36 nM
- IC50 [8]: 57 nM
- IC50 [9]: 444 nM
- IC50 [10]: 64.7 nM
- IC50 [11]: 26 nM
- IC50 [12]: 31 nM
- IC50 [13]: 24 nM
- IC50 [14]: 239 nM
- IC50 [15]: 84 nM
- IC50 [16]: 30 nM
- IC50 [17]: 52 nM
- IC50 [18]: 51 nM
- apoptosis induction [19]: induces apoptosis
